Data published in ChEMBL document CHEMBL5584313, “Design and Synthesis of 7-Oxabicyclo[2.2.1]heptane-2,3-dicarboxylic Acid Derivatives as PP5 Inhibitors To Reverse Temozolomide Resistance in Glioblastoma Multiforme” (J Med Chem, 2024).
In brackets after ≈: the same amount, converted by molar mass. Activity calls are given as the source filed them. No cut-off for these calls is given here.

What was measured:
[1] = Cytotoxicity against HEK293T cells incubated for 48 hrs by CCK8 assay; assay type: toxicity, cell-based, HEK-293T; settings: human
[2] = Apparent volume of distribution in Sprague-Dawley rat at 25 mg/kg, po measured upto 24 hrs by LC-MS/MS method; assay type: ADME, organism-based; settings: in vivo
[3] = system: U-87MG ATCC; assay: Upregulation of p53 expression in human U-87 MG cells at 25 uM after 24 hrs in presence TMZ by Western blotting analysis; assay type: functional, cell-based
[4] = Toxicity in BALB/c nude mouse xenografted with U-87 MG cells assessed as lung damage at 1.5 to 3 mg/kg, po administered every other day for 18 days in presence of 40 mg/kg TMZ by H and E staining based assay; assay type: organism-based; settings: in vivo, 432 h, dose 1.5-3 mg/kg, time 18 day
[5] = system: U-87MG ATCC; assay: Downregulation of MGMT expression in human U-87 MG cells at 25 uM incubated for 24 hrs by Western blotting analysis; assay type: functional, cell-based
[6] = system: U-87 MG; assay: Antitumor activity against human U-87 MG cells xenografted in BALB/c nude mouse assessed as tumor tissue necrosis at 1.5 to 3 mg/kg, po administered every other day for 18 days in presence of 40 mg/kg TMZ; assay type: functional, organism-based; settings: U-87MG ATCC, dose 1.5-3 mg/kg, time 18.0 day
[7] = system: U-87 MG; assay: Induction of apoptosis in human U-87 MG cells assessed as G2/M phase cells at 5 uM incubated for 24 hrs by propidium iodide staining based flow cytometry analysis (reference value: 11.9%); assay type: functional, U-87MG ATCC
[8] = Cytotoxicity against HUVECs incubated for 48 hrs by CCK8 assay; assay type: toxicity, cell-based; settings: human, HUVEC cells
[9] = Apparent clearance in Sprague-Dawley rat at 5 mg/kg, iv measured upto 24 hrs by LC-MS/MS method; assay type: ADME, organism-based; settings: in vivo, read-out: CL(app) (converted)
[10] = system: U-87 MG; assay: Cytotoxicity against human U-87 MG cells incubated for 48 hrs by CCK8 assay; assay type: functional, cell-based, U-87MG ATCC
[11] = MRT(0 to infinity) in Sprague-Dawley rat at 25 mg/kg, po measured upto 24 hrs by LC-MS/MS method; assay type: ADME, organism-based; settings: in vivo
[12] = Aqueous stability of compound assessed as compound remaining measured at 240 mins by HPLC assay; assay type: physicochemical; settings: aqueous solution, read-out: Stability
[13] = Stability of compound in stimulated gastric fluid assessed as remaining compound after 24 hrs by HPLC method; assay type: ADME; settings: simulated gastric fluid, read-out: Stability
[14] = system: U-87 MG; assay: Induction of apoptosis in human U-87 MG cells assessed as S phase cells at 5 uM incubated for 24 hrs by propidium iodide staining based flow cytometry analysis (reference value: 29.4%); assay type: functional, U-87MG ATCC
[15] = system: U-87 MG; assay: Antitumor activity against human U-87 MG cells xenografted in BALB/c nude mouse assessed as tumor growth inhibition at 3 mg/kg, po administered every other day for 18 days in presence of 40 mg/kg TMZ; assay type: functional, U-87MG ATCC; settings: 432 h, time 18 day, read-out: TGI
[16] = Cytotoxicity against human BEAS-2B incubated for 48 hrs by CCK8 assay; assay type: toxicity, cell-based; settings: BEAS-2B cells
[17] = Toxicity in BALB/c nude mouse xenografted with U-87 MG cells assessed as change in body weight at 1.5 to 3 mg/kg, po administered every other day for 18 days in presence of 40 mg/kg TMZ; assay type: organism-based; settings: in vivo, 432 h, dose 1.5-3 mg/kg, time 18 day
[18] = Aqueous solubility of compound by HPLC method; assay type: physicochemical; settings: water
[19] = Toxicity in BALB/c nude mouse xenografted with U-87 MG cells assessed as kidney damage at 1.5 to 3 mg/kg, po administered every other day for 18 days in presence of 40 mg/kg TMZ by H and E staining based assay; assay type: organism-based; settings: in vivo, 432 h, dose 1.5-3 mg/kg, time 18 day
[20] = Tmax in Sprague-Dawley rat at 5 mg/kg, iv measured upto 24 hrs by LC-MS/MS method; assay type: ADME, organism-based; settings: in vivo
[21] = Apparent clearance in Sprague-Dawley rat at 25 mg/kg, po measured upto 24 hrs by LC-MS/MS method; assay type: ADME, organism-based; settings: in vivo, read-out: CL(app) (converted)
[22] = Inhibition of PP2A in human U-87 MG cell lysate using RRA(pT)VA as substrate; assay type: subcellular
[23] = system: U-87 MG; assay: Antitumor activity against human U-87 MG cells xenografted in BALB/c nude mouse assessed as increase in p53 expression at 1.5 to 3 mg/kg, po measured after 4 hrs in presence of 40 mg/kg TMZ by Western blotting analysis; assay type: functional, organism-based; settings: U-87MG ATCC, dose 1.5-3 mg/kg
[24] = MRT(0 to infinity) in Sprague-Dawley rat at 5 mg/kg, iv measured upto 24 hrs by LC-MS/MS method; assay type: ADME, organism-based; settings: in vivo
[25] = system: A549; assay: Cytotoxicity against human A549 cells incubated for 48 hrs by CCK8 assay; assay type: functional, cell-based; settings: A549, 48 h
[26] = system: U-87 MG; assay: Induction of apoptosis in human U-87 MG cells assessed as G0/G1 phase cells at 5 uM incubated for 24 hrs by propidium iodide staining based flow cytometry analysis (reference value: 58.8%); assay type: functional, U-87MG ATCC
[27] = Toxicity in BALB/c nude mouse xenografted with U-87 MG cells assessed as spleen damage at 1.5 to 3 mg/kg, po administered every other day for 18 days in presence of 40 mg/kg TMZ by H and E staining based assay; assay type: organism-based; settings: in vivo, 432 h, dose 1.5-3 mg/kg, time 18 day
[28] = Stability of compound in water assessed as remaining compound after 24 hrs; assay type: physicochemical; settings: read-out: Stability
[29] = Oral bioavailability in Sprague-Dawley rat at 25 mg/kg measured upto 24 hrs by LC-MS/MS method; assay type: ADME, organism-based; settings: in vivo
[30] = Toxicity in BALB/c nude mouse xenografted with U-87 MG cells assessed as liver damage at 1.5 to 3 mg/kg, po administered every other day for 18 days in presence of 40 mg/kg TMZ by H and E staining based assay; assay type: organism-based; settings: in vivo, 432 h, dose 1.5-3 mg/kg, time 18 day
[31] = Stability in mouse plasma assessed as half life measured upto 300 mins by LC-MS/MS analysis; assay type: ADME, cell-free
[32] = system: U-87 MG; assay: Synergistic antiproliferative activity against human U-87 MG cells in presence of TMZ; assay type: functional, cell-based, U-87MG ATCC
[33] = system: U-87 MG; assay: Antitumor activity against human U-87 MG cells xenografted in BALB/c nude mouse assessed as tumor growth retardation at 3 mg/kg, po administered every other day for 18 days; assay type: functional, organism-based; settings: U-87MG ATCC, time 18.0 day
[34] = system: U-87 MG; assay: Antitumor activity against human U-87 MG cells xenografted in BALB/c nude mouse assessed as reduction in tumor weight at 3 mg/kg, po administered every other day for 18 days in presence of 40 mg/kg TMZ; assay type: functional, organism-based; settings: U-87MG ATCC, time 18.0 day
[35] = Stability of compound in stimulated intestinal fluid assessed as remaining compound after 24 hrs by HPLC method; assay type: ADME; settings: simulated intestinal fluid, read-out: Stability
[36] = Cmax in Sprague-Dawley rat at 5 mg/kg, iv measured upto 24 hrs by LC-MS/MS method; assay type: ADME, organism-based; settings: in vivo
[37] = Tmax in Sprague-Dawley rat at 25 mg/kg, po measured upto 24 hrs by LC-MS/MS method; assay type: ADME, organism-based; settings: in vivo
[38] = species: Homo sapiens; assay: Selectivity ratio of IC50 for PP1 (unknown origin ) to IC50 for PP5 (unknown origin)
[39] = system: U-87MG ATCC; assay: Upregulation of p27 expression in human U-87 MG cells at 6.25 to 100 uM after 24 hrs by Western blotting analysis; assay type: functional, cell-based; settings: dose 6.25-100 µM

Vz [2]: 2.62804 L/kg | clearance [9]: 6.3 mL/min/kg | MRT inf [11]: 5 h | remaining at 4 h [12]: 99.8% | remaining at 24 h [13]: 92% | solubility [18]: 552 µg/mL (≈ 1930 µM) | Tmax [20]: 1.2 min | CL/F [21]: 7.69 mL/min/kg | IC50 [22]: 33.8 µM | MRT inf [24]: 5.52 h | remaining at 24 h [28]: 98.3% | bioavailability [29]: 82% | half-life [31]: 2.09 h | IC50 [32]: 19.8 µM | remaining at 24 h [35]: 96% | Cmax [36]: 8620 ng/mL | Tmax [37]: 1.17 h | Ratio IC50 [38]: 21.4
SMILES: O=C(O)[C@@H]1[C@H](C(=O)n2ccc3ccccc32)[C@H]2CC[C@@H]1O2
IC50 at 48 h [1]: > 200 µM | Activity [3]: Active | Activity [4]: Non-Toxic | Activity [5]: Active | Activity [6]: Active | Activity [7]: 10.9% | IC50 at 48 h [8]: > 200 µM | IC50 [10]: 70.1 µM | Activity [14]: 19.2% | inhibition in vivo at 3 mg/kg [15]: 87.7% | IC50 at 48 h [16]: 57.8 µM | Activity [17]: Non-Toxic | Activity [19]: Non-Toxic | Activity [23]: Active | IC50 [25]: 69.6 µM | Activity [26]: 72.2% | Activity [27]: Non-Toxic | Activity [30]: Non-Toxic | Activity [33]: Active | Activity [34]: Active | Activity [39]: Active
